Patent publication US12065436B2, “Cardiac sarcomere inhibitors” (Cytokinetics, Inc., priority 2018, dated 2024)

Target: bovine cardiac myofibrils (full-length cardiac myosin ATPase in the native sarcomere) (Bos taurus (Bovine), UniProt Q9BE39)
Assay: Skinned bovine cardiac myofibril ATPase assay (PK/LDH-coupled)
Assay type: biochemical
Conditions: Ca2+ activating to 75% of maximal rate; for CDMF75 IC15: concentration giving 15% inhibition; for IC50: read-out: CDMF75 IC50
Summary of the method: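 Triton-skinned bovine left-ventricle myofibrils (1 mg/mL) in PM 12 buffer (12 mM PIPES, 2 mM MgCl2, pH 6.8) with 50 μM ATP, 0.6 mM EGTA and CaCl2 set for 50% or 75% activation. Steady-state ATPase inhibition followed by PK/LDH-coupled NADH oxidation at 340 nm.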

bovine cardiac myofibrils (full-length cardiac myosin ATPase in the native sarcomere), sequence (Q9BE39 whole entry): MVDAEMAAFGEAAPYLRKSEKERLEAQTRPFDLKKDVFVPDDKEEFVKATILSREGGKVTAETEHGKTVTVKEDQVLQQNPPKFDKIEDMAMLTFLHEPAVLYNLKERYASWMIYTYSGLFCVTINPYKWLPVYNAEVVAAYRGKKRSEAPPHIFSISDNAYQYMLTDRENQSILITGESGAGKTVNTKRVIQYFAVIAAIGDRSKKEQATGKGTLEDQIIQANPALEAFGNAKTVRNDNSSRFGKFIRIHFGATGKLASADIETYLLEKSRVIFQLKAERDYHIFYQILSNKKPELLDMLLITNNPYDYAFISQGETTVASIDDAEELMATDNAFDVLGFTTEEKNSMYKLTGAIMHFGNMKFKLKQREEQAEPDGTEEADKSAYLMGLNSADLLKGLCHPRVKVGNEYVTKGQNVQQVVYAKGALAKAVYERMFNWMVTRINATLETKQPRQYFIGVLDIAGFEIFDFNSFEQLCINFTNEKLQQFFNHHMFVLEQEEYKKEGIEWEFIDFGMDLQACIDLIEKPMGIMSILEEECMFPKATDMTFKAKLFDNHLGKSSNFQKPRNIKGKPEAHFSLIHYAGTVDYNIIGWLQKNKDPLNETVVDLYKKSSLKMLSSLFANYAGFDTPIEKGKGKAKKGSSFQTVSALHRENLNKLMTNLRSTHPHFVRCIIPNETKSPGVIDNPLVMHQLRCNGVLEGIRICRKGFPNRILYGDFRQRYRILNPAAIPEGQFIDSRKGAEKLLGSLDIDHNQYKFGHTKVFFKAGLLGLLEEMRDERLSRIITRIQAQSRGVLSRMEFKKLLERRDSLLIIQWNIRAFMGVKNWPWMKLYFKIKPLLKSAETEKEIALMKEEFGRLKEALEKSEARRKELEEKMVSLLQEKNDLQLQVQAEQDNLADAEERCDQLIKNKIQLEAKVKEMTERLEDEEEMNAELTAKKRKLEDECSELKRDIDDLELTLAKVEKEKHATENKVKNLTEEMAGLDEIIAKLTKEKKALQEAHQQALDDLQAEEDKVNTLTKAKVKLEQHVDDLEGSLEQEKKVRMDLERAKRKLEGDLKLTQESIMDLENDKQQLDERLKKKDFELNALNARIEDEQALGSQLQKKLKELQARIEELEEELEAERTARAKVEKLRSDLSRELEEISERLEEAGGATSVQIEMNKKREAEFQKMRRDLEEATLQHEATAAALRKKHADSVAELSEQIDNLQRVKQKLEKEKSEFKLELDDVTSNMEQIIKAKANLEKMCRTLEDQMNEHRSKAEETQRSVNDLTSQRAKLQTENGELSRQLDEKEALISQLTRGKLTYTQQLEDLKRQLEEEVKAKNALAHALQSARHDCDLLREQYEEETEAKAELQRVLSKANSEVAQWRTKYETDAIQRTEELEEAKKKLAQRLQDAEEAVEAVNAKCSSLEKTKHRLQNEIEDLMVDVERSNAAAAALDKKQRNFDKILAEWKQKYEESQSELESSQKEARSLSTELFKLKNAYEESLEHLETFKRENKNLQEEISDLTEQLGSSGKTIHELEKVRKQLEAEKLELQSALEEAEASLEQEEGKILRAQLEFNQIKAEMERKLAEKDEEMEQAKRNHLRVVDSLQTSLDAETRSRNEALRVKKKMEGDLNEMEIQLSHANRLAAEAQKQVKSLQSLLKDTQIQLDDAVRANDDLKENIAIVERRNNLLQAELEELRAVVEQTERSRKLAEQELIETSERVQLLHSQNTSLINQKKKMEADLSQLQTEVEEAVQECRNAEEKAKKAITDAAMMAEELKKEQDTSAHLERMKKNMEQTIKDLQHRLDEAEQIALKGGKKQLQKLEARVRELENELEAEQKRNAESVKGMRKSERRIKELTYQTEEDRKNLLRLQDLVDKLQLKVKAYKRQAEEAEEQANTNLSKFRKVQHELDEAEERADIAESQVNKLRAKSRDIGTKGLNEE
bovine cardiac myofibrils (full-length cardiac myosin ATPase in the native sarcomere), sequence (P85100 whole entry partner): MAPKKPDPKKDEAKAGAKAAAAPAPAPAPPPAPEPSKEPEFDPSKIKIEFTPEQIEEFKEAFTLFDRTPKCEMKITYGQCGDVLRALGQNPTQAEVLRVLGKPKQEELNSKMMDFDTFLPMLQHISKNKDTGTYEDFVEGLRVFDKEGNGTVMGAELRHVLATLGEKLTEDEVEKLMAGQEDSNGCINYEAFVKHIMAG
bovine cardiac myofibrils (full-length cardiac myosin ATPase in the native sarcomere), sequence (Q3SZE5 whole entry partner): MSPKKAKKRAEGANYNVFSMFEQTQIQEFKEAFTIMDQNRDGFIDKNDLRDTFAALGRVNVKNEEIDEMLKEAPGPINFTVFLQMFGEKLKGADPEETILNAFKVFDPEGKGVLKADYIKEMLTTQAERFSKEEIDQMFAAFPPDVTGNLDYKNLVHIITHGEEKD

Row | Compound | CDMF75 IC15 [nM] | IC50 [nM]
1 | Cc1nc(-c2ccc3c(c2)CCC3NC(=O)c2ncnn2C)no1 (stereo not drawn) [Compound 120, 1-methyl-N-(5-(5-methyl-1,2,4-oxadiazol-3-yl)-2,3-dihydro-1H-inden-1-yl)-1H-1,2,4-triazole-5-carboxamide] | 2400 | 9800
2 | Cc1nc(-c2ccc3c(c2)OCC3NC(=O)c2ccnn2C)no1 (stereo not drawn) [Compound 121, 1-methyl-N-(6-(5-methyl-1,2,4-oxadiazol-3-yl)-2,3-dihydrobenzofuran-3-yl)-1H-pyrazole-5-carboxamide] | 1000 | 3100
3 | Cc1nc(-c2ccc3c(c2)CC[C@H]3NC(=O)c2ccc3[nH]c(=O)[nH]c3c2)no1 [Compound 125, (R)-N-(5-(5-methyl-1,2,4-oxadiazol-3-yl)-2,3-dihydro-1H-inden-1-yl)-2-oxo-2,3-dihydro-1H-benzo[d]imidazole-5-carboxamide] | 1600 | 6200
4 | CO[C@@H](C)c1nc(-c2ccc3c(c2)CC[C@H]3NC(=O)c2oncc2C)no1 [Compound 126, N-((R)-5-(5-((S)-1-methoxyethyl)-1,2,4-oxadiazol-3-yl)-2,3-dihydro-1H-inden-1-yl)-4-methylisoxazole-5-carboxamide] | 1600 | 5700
5 | Cc1noc(C(=O)NC2CCc3cc(-c4noc(C(F)F)n4)ccc32)n1 (stereo not drawn) [Compound 127, N-(5-(5-(difluoromethyl)-1,2,4-oxadiazol-3-yl)-2,3-dihydro-1H-inden-1-yl)-3-methyl-1,2,4-oxadiazole-5-carboxamide] | 1700 | 7700
6 | Cc1noc(C(=O)NC2CCc3cc(-c4noc(C)n4)ccc32)n1 (stereo not drawn) [Compound 128, 3-methyl-N-(5-(5-methyl-1,2,4-oxadiazol-3-yl)-2,3-dihydro-1H-inden-1-yl)-1,2,4-oxadiazole-5-carboxamide] | 2600 | 12200
7 | Cc1cc(C(=O)NC2CCc3cc(-c4nc(C)no4)ccc32)ccn1 (stereo not drawn) [Compound 130, 2-methyl-N-(5-(3-methyl-1,2,4-oxadiazol-5-yl)-2,3-dihydro-1H-inden-1-yl)isonicotinamide] | 2500 | 10300
8 | Cc1cc(C(=O)N[C@@H]2CCc3cc(-c4nc(C)no4)ccc32)ccn1 [Compound 131, (R)-2-methyl-N-(5-(3-methyl-1,2,4-oxadiazol-5-yl)-2,3-dihydro-1H-inden-1-yl)isonicotinamide] | 1400 | 5400
9 | Cc1cc(C(=O)NC2CCc3cc(-c4nc(C(F)F)no4)ccc32)ccn1 (stereo not drawn) [Compound 132, N-(5-(3-(difluoromethyl)-1,2,4-oxadiazol-5-yl)-2,3-dihydro-1H-inden-1-yl)-2-methylisonicotinamide] | 4300 | 17700
10 | Cc1cc(C(=O)N[C@@H]2CCc3cc(-c4nc(C(F)F)no4)ccc32)ccn1 [Compound 133, (R)-N-(5-(3-(difluoromethyl)-1,2,4-oxadiazol-5-yl)-2,3-dihydro-1H-inden-1-yl)-2-methylisonicotinamide] | 1500 | 5700
11 | Cc1cc(C(=O)NC2CCc3cc(-c4cnc(C)o4)ccc32)ccn1 (stereo not drawn) [Compound 134, 2-methyl-N-(5-(2-methyloxazol-5-yl)-2,3-dihydro-1H-inden-1-yl)isonicotinamide] | 39200 | > 39200
12 | Cc1cc(C(=O)N[C@@H]2CCc3cc(-c4cnc(C)o4)ccc32)ccn1 [Compound 135, (R)-2-methyl-N-(5-(2-methyloxazol-5-yl)-2,3-dihydro-1H-inden-1-yl)isonicotinamide] | 39200 | > 39200
13 | Cc1cc(C(=O)NC2CCc3cc(-c4cc(C)on4)ccc32)ccn1 (stereo not drawn) [Compound 137, 2-methyl-N-(5-(5-methylisoxazol-3-yl)-2,3-dihydro-1H-inden-1-yl)isonicotinamide] | 1200 | 4900
14 | Cc1cc(C(=O)N[C@@H]2CCc3cc(-c4cc(C)on4)ccc32)ccn1 [Compound 138, (R)-2-methyl-N-(5-(5-methylisoxazol-3-yl)-2,3-dihydro-1H-inden-1-yl)isonicotinamide] | 800 | 2900
15 | Cc1cc(C(=O)N[C@@H]2CCc3cc(-c4ncc(C)o4)ccc32)ccn1 [Compound 139, (R)-2-methyl-N-(5-(5-methyloxazol-2-yl)-2,3-dihydro-1H-inden-1-yl)isonicotinamide] | 3600 | 17300
16 | Cc1cc(C(=O)NC2CCc3cc(-c4ncc(C)o4)ccc32)ccn1 (stereo not drawn) [Compound 140, 2-methyl-N-(5-(5-methyloxazol-2-yl)-2,3-dihydro-1H-inden-1-yl)isonicotinamide] | 7600 | > 39200
17 | Cc1cc(C(=O)NC2CCc3cc(-c4coc(C)n4)ccc32)ccn1 (stereo not drawn) [Compound 145, 2-methyl-N-(5-(2-methyloxazol-4-yl)-2,3-dihydro-1H-inden-1-yl)isonicotinamide] | 39200 | > 39200
18 | Cc1cc(C(=O)N[C@@H]2CCc3cc(-c4coc(C)n4)ccc32)ccn1 [Compound 146, (R)-2-methyl-N-(5-(2-methyloxazol-4-yl)-2,3-dihydro-1H-inden-1-yl)isonicotinamide] | 21200 | > 39200
19 | Cc1cc(C(=O)N[C@@H]2CCc3cc(-c4nnn(C)n4)ccc32)ccn1 [Compound 147, (R)-2-methyl-N-(5-(2-methyl-2H-tetrazol-5-yl)-2,3-dihydro-1H-inden-1-yl)isonicotinamide] | 1300 | 6200
20 | Cc1cc(C(=O)NC2CCc3cc(-c4nnn(C)n4)ccc32)ccn1 (stereo not drawn) [Compound 148, 2-methyl-N-(5-(2-methyl-2H-tetrazol-5-yl)-2,3-dihydro-1H-inden-1-yl)isonicotinamide] | 2900 | 13500
21 | Cc1cc(C(=O)N[C@H]2CCc3cc(-c4nnn(C)n4)ccc32)ccn1 [Compound 149, (S)-2-methyl-N-(5-(2-methyl-2H-tetrazol-5-yl)-2,3-dihydro-1H-inden-1-yl)isonicotinamide] | 39200 | > 39200
22 | Cc1cc(C(=O)NC2COc3cc(-c4noc(C)n4)ccc32)n(C)n1 (stereo not drawn) [Compound 155, 1,3-dimethyl-N-(6-(5-methyl-1,2,4-oxadiazol-3-yl)-2,3-dihydrobenzofuran-3-yl)-1H-pyrazole-5-carboxamide] | 1000 | 4100
23 | Cc1cc(C(=O)N[C@@H]2COc3cc(-c4noc(C)n4)ccc32)n(C)n1 [Compound 156, (S)-1,3-dimethyl-N-(6-(5-methyl-1,2,4-oxadiazol-3-yl)-2,3-dihydrobenzofuran-3-yl)-1H-pyrazole-5-carboxamide] | 1100 | 4700

Now those with a lower IC50, led by results:

Row | CDMF75 IC15 [nM] | IC50 [nM] | Compound
24 | 500 | 1800 | Cc1nc(-c2ccc3c(c2)OC[C@H]3NC(=O)c2ccnn2C)no1 [Compound 122, (S)-1-methyl-N-(6-(5-methyl-1,2,4-oxadiazol-3-yl)-2,3-dihydrobenzofuran-3-yl)-1H-pyrazole-5-carboxamide]
25 | 500 | 1700 | Cn1nccc1C(=O)NC1COc2cc(-c3noc(C(F)F)n3)ccc21 (stereo not drawn) [Compound 123, N-(6-(5-(difluoromethyl)-1,2,4-oxadiazol-3-yl)-2,3-dihydrobenzofuran-3-yl)-1-methyl-1H-pyrazole-5-carboxamide]
26 | 500 | 1500 | Cc1nocc1C(=O)NC1CCc2cc(-c3noc(C(F)F)n3)ccc21 (stereo not drawn) [Compound 129, N-(5-(5-(difluoromethyl)-1,2,4-oxadiazol-3-yl)-2,3-dihydro-1H-inden-1-yl)-3-methylisoxazole-4-carboxamide]
27 | 800 | 2800 | Cc1nc(-c2ccc3c(c2)CC[C@H]3NC(=O)c2nnn(C)n2)no1 [Compound 136, (R)-2-methyl-N-(5-(5-methyl-1,2,4-oxadiazol-3-yl)-2,3-dihydro-1H-inden-1-yl)-2H-tetrazole-5-carboxamide]
28 | 300 | 1000 | Cn1nnc(C(=O)N[C@@H]2CCc3cc(-c4noc(C5CCC5)n4)ccc32)n1 [Compound 143, (R)—N-(5-(5-cyclobutyl-1,2,4-oxadiazol-3-yl)-2,3-dihydro-1H-inden-1-yl)-2-methyl-2H-tetrazole-5-carboxamide]
29 | 300 | 1200 | Cc1nn(C)cc1C(=O)N[C@@H]1CCc2cc(-c3noc(C4CCC4)n3)ccc21 [Compound 150, (R)-N-(5-(5-cyclobutyl-1,2,4-oxadiazol-3-yl)-2,3-dihydro-1H-inden-1-yl)-1,3-dimethyl-1H-pyrazole-4-carboxamide]
30 | 500 | 2000 | Cc1c(C(=O)N[C@@H]2CCc3cc(-c4noc(C5CCC5)n4)ccc32)cnn1C [Compound 151, (R)-N-(5-(5-cyclobutyl-1,2,4-oxadiazol-3-yl)-2,3-dihydro-1H-inden-1-yl)-1,5-dimethyl-1H-pyrazole-4-carboxamide]
31 | 600 | 2200 | Cc1nn(C)cc1C(=O)N[C@@H]1CCc2cc(-c3noc(C(C)C)n3)ccc21 [Compound 152, (R)-N-(5-(5-isopropyl-1,2,4-oxadiazol-3-yl)-2,3-dihydro-1H-inden-1-yl)-1,3-dimethyl-1H-pyrazole-4-carboxamide]
32 | 500 | 1900 | Cc1c(C(=O)N[C@@H]2CCc3cc(-c4noc(C5CC5)n4)ccc32)cnn1C [Compound 153, (R)-N-(5-(5-cyclopropyl-1,2,4-oxadiazol-3-yl)-2,3-dihydro-1H-inden-1-yl)-1,5-dimethyl-1H-pyrazole-4-carboxamide]
33 | 400 | 1500 | Cc1nn(C)cc1C(=O)N[C@@H]1CCc2cc(-c3noc(C4CC4)n3)ccc21 [Compound 154, (R)-N-(5-(5-cyclopropyl-1,2,4-oxadiazol-3-yl)-2,3-dihydro-1H-inden-1-yl)-1,3-dimethyl-1H-pyrazole-4-carboxamide]
